Columns and labels:
Oryctolagus sp. = conditions: reproduction developmental; mortality
Mus musculus = conditions: acute; oral; mortality
Scenedesmus quadricauda = conditions: acute
Oncorhynchus mykiss = conditions: acute; mortality
Pontoscolex corethrurus = conditions: acute; mortality
Neovison vison = conditions: reproduction developmental; reproduction
Apis mellifera = conditions: acute, mortality
Daphnia magna = conditions: chronic/long-term
Rattus norvegicus = conditions: reproduction developmental; mortality

SMILES: [I-].[K+] [Potassium iodide]
- NOAEL (Oryctolagus sp.): 0.5 mg/kg-day
- LD50 (Mus musculus): 1860 mg/kg
- NOEC (Scenedesmus quadricauda): 1310 mg/L
- LD50 (Bird; acute, oral, unspecified, mortality): > 1180 mg/kg-day
- NOEC (Bird; reproductive, reproduction): 0.69 mg/kg-day
- LC50 (Bird; short-term, oral, feed, mortality): > 258 mg/kg-day
- LC50 (Oncorhynchus mykiss): 2190 µg/mL
- LC50 (Pontoscolex corethrurus): > 12.5 mg/kg
- NOAEL (Neovison vison): 0.5 mg/kg-day
- LD50 (Apis mellifera; dermal): > 0.78 µg/piece
- LD50 (Apis mellifera; oral, unspecified): > 2.4 µg/piece
- NOEC (Daphnia magna): 0.25 mg/L
- NOAEL (Rattus norvegicus): 0.5 mg/kg-day

From EPA's ToxValDB 9.5 (doi:10.2903/j.efsa.2013.2923)
